Our source for the Kd values is paper PMC6204372, “An RORγt Oral Inhibitor Modulates IL-17 Responses in Peripheral Blood and Intestinal Mucosa of Crohn's Disease Patients” (Frontiers in Immunology, 2018).

The experiment addresses T1, RORγ (RORγt) ligand-binding domain (Homo sapiens, UniProt P51449).
T1 construct: gene RORC
T1 sequence (P51449 265-507 limits assumed): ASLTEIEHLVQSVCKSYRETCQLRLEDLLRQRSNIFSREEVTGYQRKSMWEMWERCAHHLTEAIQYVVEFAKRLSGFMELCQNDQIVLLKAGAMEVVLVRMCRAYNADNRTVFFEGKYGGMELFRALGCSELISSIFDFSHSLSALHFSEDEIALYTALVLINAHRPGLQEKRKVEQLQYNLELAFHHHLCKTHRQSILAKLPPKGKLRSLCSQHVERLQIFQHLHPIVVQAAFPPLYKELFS
Description: Kd for human RORγ LBD (binding method not stated); also RORγ LBD reporter assay IC50 […]. On the technique in general: In a reporter assay the amount or activity of a reporter protein is the signal.

On to BI119, for which the Kd (in general, the free concentration of one partner at which half of the binding sites on the other are occupied at equilibrium, for simple one-to-one binding) was determined as 65 nM.
